Three molecules from patent publication US20090304725A1, “Vaccine and Antigen Mimotopes Against Cancerous Diseases Associated with the Carcinoembryonic Antigen CEA” (Medizinische Universitat Wien, priority 2006, published 2009) can be followed below.

The subject of data set [1] is CEA antigen binding to anti-CEA antibody Col-1. Nature of the data set: Mimicry test, competitive ELISA on coated CEA antigen with Col-1. Details: species or system human. The following applies: phages at 5*10^10, 1*10^10, 1*10^9 particles per ml, simultaneously with Col-1. Here is the method: FIG. 3: Mimicry analysis in ELISA competition assay. Coated CEA antigen is detected by Col-1 antibody, rendering a maximal signal of 1,4. Simultaneous incubation was done with titrated phage clones (white columns highest, grey: medium, black: least concentration of phage clones). Bound Col-1 was detected with anti-mouse IgG-peroxidase labelled. X-axis: clone names, Y-axis: colour intensity at OD450-630 nm.
The CEA antigen (human purified; Sigma, St. Louis) was used for coating ELISA plates. After blocking and washing, mimotopes phages were added to wells in three concentrations (5*10^10, 1*10^10, 1*10^9 particles per ml) simultaneously with antibody Col-1. In a final step, bound Col-1 antibody was detected by a peroxidase-labeled anti-mouse antibody. TMB substrate (BD Biosciences, San Diego, Calif.) was added for development of the colour and signal intensity measured in ELISA reader at OD450-630. […] This assay evidenced that selected mimotopes are mimics of the Col-1 epitope on CEA antigen.
In general terms: In an ELISA, binding on a coated surface is turned into a signal by an enzyme label.

Data set [2] deals with SW480 CEA-negative colon cancer cells. As to the kind of experiment: Cytotoxicity assay on CEA-negative control cell line. The following applies: sera of immunized mice. The format is cell-based. As for the experimental part:
(§1) FIG. 6: CDC reaction in vitro. Effects of the mimotope induced antibodies in mediating complement-dependent cytotoxicity. The reaction was determined against the CEA positive cell line HT 29 and against the CEA negative cell line SW 480. Mouse immune sera in different concentrations were tested on the two cell lines. Sera from CEA-MAM immunized mice were used 1:50 (black columns; 1) and 1:100 (white column; 2). The antibody Col-1 (3), the isotype control antibodies IgG2a (4) and IgM (5) were used as negative controls.
(§2) FIG. 7: ADCC reaction in vitro. Effects of the antibody-dependent cytotoxicity. The reaction was determined against the CEA positive cell line HT 29 and against the CEA negative cell line SW 480. The CEA-MAP serum was used 1:50 (black columns; 1). The mice immunized with a control-MAP (2) or alum alone (3) and the Col-1 antibody (4) were used as negative controls.
Complement-dependent cytotoxicity (CDC) and antibody-dependent-cytotoxicity (ADCC) effectivity of the antibodies induced by mimotope vaccination were measured with the CytoTox 96 Nonradioactive Cytotoxicity assay (Promega, Madison, Wis.). HT29 CEA overexpressing cells were used as positive target cells. […] All assay procedures and readouts were done as described in the manufacturers description. […] The results of the cytotoxicity was calculated as follows: […]

Data set [3] concerns HT29 CEA overexpressing cells. Nature of the data set: Antibody-dependent cytotoxicity (ADCC) assay, CytoTox 96. The format is cell-based. The following applies: pooled fifth immune sera of immunized mice diluted 1:50; naive BALB/c spleen cells as effector cells. Here is the method:
as §2
(§3) Complement-dependent cytotoxicity (CDC) and antibody-dependent-cytotoxicity (ADCC) effectivity of the antibodies induced by mimotope vaccination were measured with the CytoTox 96 Nonradioactive Cytotoxicity assay (Promega, Madison, Wis.). HT29 CEA overexpressing cells were used as positive target cells. SW480 CEA-negative colon cancer cells served as a negative target control cell line. The number of both target cells was optimized to 2×10^5 cells/ml. For CDC reactions (FIG. 6), pooled fifth immune sera were diluted 1:50 (1) or 1:100 (2) in CytoTox 96 assay medium. Additionally, the antibody Col-1 (3), an IgG2a (4) and an IgM (5) antibody (Sigma, Vienna, Austria) served as negative controls. Spleen cells of naïve BALB/c mice were prepared by mashing the spleen and lysing the erythrocytes with ammonium chloride and used as effector cells. […] All assay procedures and readouts were done as described in the manufacturers description. […] The results of the cytotoxicity was calculated as follows: […]

Data set [4] deals with HT29 CEA overexpressing cells. As to the kind of experiment: Complement-dependent cytotoxicity (CDC) assay, CytoTox 96. The format is cell-based. The following applies: highest value corrected to 100%. As for the experimental part: as §1
as §3, with “controls.” for “controls. Spleen cells of naïve BALB/c mice were prepared by mashing the spleen and lysing the erythrocytes with ammonium chloride and used as effector cells.”

Data set [5] concerns the target CEA antigen (human purified; Sigma, St. Louis) (human) (UniProt P06731). As to the kind of experiment: ELISA, CEA coated, bound Col-1 detected with anti-mouse IgG-peroxidase (FIG. 3).
UniProt P06731, sequence (P06731 35-685 limits assumed): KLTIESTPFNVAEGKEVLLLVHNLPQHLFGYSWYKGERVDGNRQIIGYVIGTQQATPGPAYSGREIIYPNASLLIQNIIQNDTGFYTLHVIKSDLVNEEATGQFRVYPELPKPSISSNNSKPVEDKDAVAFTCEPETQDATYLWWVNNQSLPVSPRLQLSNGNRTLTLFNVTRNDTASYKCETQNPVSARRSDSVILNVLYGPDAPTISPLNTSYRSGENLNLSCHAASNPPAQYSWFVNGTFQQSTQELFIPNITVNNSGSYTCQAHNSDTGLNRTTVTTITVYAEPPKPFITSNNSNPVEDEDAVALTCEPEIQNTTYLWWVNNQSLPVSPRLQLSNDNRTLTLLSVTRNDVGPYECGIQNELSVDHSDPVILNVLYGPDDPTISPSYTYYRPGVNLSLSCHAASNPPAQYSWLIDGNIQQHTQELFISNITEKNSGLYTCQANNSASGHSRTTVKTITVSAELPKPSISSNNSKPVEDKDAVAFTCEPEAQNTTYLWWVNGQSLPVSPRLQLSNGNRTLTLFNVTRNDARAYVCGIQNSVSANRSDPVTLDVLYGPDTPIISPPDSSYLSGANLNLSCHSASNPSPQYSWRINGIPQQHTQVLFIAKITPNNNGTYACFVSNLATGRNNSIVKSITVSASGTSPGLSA

Bridge positions count the residues as written; N and C are the ends. Ends that are not written are not given here.

As to “C-RLALGDAKKY-C (CRLALGDAKKYC; disulfide 1-12; not fully specified; printed as C-RLALGDAKKY-C) [COL4, CEA mimotope selected from phage library with antibody Col-1]”, the “competition of phage-displayed mimotope with CEA for binding to Col-1” value in data set [1] is recorded as “best candidate”.

Regarding `CC(C)C[C@H](NC(=O)CNC(=O)CNC(=O)[C@H](CCCNC(=N)N)NC(=O)[C@@H](N)CC(=O)O)C(=O)N[C@@H](Cc1c[nH]c2ccccc12)C(=O)N[C@@H](CCCCN)C(=O)N[C@H](C(=O)N1CCC[C@H]1C(=O)NCCCC[C@H](NC(=O)[C@@H]1CCCN1C(=O)[C@@H](NC(=O)[C@H](CCCCN)NC(=O)[C@H](Cc1c[nH]c2ccccc12)NC(=O)[C@H](CC(C)C)NC(=O)CNC(=O)CNC(=O)[C@H](CCCNC(=N)N)NC(=O)[C@@H](N)CC(=O)O)[C@@H](C)O)C(=O)NCCCC[C@H](NC(=O)[C@H](CCCCNC(=O)[C@@H]1CCCN1C(=O)[C@@H](NC(=O)[C@H](CCCCN)NC(=O)[C@H](Cc1c[nH]c2ccccc12)NC(=O)[C@H](CC(C)C)NC(=O)CNC(=O)CNC(=O)[C@H](CCCNC(=N)N)NC(=O)[C@@H](N)CC(=O)O)[C@@H](C)O)NC(=O)[C@@H]1CCCN1C(=O)[C@@H](NC(=O)[C@H](CCCCN)NC(=O)[C@H](Cc1c[nH]c2ccccc12)NC(=O)[C@H](CC(C)C)NC(=O)CNC(=O)CNC(=O)[C@H](CCCNC(=N)N)NC(=O)[C@@H](N)CC(=O)O)[C@@H](C)O)C(=O)NCC(=O)NCC(=O)N[C@@H](CSCC(=O)NCCCCCCNC(=O)CSC[C@H](NC(=O)CNC(=O)CNC(=O)[C@H](CCCCNC(=O)[C@H](CCCCNC(=O)[C@@H]1CCCN1C(=O)[C@@H](NC(=O)[C@H](CCCCN)NC(=O)[C@H](Cc1c[nH]c2ccccc12)NC(=O)[C@H](CC(C)C)NC(=O)CNC(=O)CNC(=O)[C@H](CCCNC(=N)N)NC(=O)[C@@H](N)CC(=O)O)[C@@H](C)O)NC(=O)[C@@H]1CCCN1C(=O)[C@@H](NC(=O)[C@H](CCCCN)NC(=O)[C@H](Cc1c[nH]c2ccccc12)NC(=O)[C@H](CC(C)C)NC(=O)CNC(=O)CNC(=O)[C@H](CCCNC(=N)N)NC(=O)[C@@H](N)CC(=O)O)[C@@H](C)O)NC(=O)[C@H](CCCCNC(=O)[C@@H]1CCCN1C(=O)[C@@H](NC(=O)[C@H](CCCCN)NC(=O)[C@H](Cc1c[nH]c2ccccc12)NC(=O)[C@H](CC(C)C)NC(=O)CNC(=O)CNC(=O)[C@H](CCCNC(=N)N)NC(=O)[C@@H](N)CC(=O)O)[C@@H](C)O)NC(=O)[C@@H]1CCCN1C(=O)[C@@H](NC(=O)[C@H](CCCCN)NC(=O)[C@H](Cc1c[nH]c2ccccc12)NC(=O)[C@H](CC(C)C)NC(=O)CNC(=O)CNC(=O)[C@H](CCCNC(=N)N)NC(=O)[C@@H](N)CC(=O)O)[C@@H](C)O)C(=O)O)C(=O)O)[C@@H](C)O` [CEA-mimotope MAP], the “cytotoxic reaction on CEA negative cells” value in data set [2] was “no reaction”. Besides, the ADCC cytotoxicity in data set [3] turned out to be 50%. Besides, the values for the CDC cytotoxicity in data set [4] (pooled fifth immune sera of immunized mice diluted 1:50) and in data set [4] (pooled fifth immune sera of immunized mice diluted 1:100) were 100% and 51%, respectively.

B1: monoclonal antibody Col-1 (Zymed Lab., San Francisco, Calif.) (antibody, from another filing, V domains shown)
VH: EVQLQQSGAELVRSGASVKMSCTASGFNIKDYYMHWVKQRPEQGLEWIGWIDPENGDTEYAPKFQGKATMTTDTSSNTAYLQLSSLTSEDTAVYYCNTRGLSTMITTRWFFDVWGAGTTVAVSS
VL: DIVLTQSPASLTVSLGLRATISCRASKSVSASGYSYMHWYQQRPGQPPKLLIYLASNLQSGVPARFSGSGSGTDFTLNIHPVEEEDAATYYCQHSRELPTFGGGTKLEIK
Consider B1, for which the maximal signal (OD450-630 nm) in data set [5] came out at 1.4 OD450-630 nm.
